The text below walks through data of patent US20250188030A1, “Biphenyl and Phenylpyridine Compounds” (Pfizer Inc., priority 2023, published 2025).

Molecules are shown by their SMILES. Like-named read-outs stand apart in the source and are kept apart here. A value given as a limit tells only on which side of the number the result lay.

One test deals with KAT2A (Homo sapiens (Human), UniProt Q92830). In words: KAT2A acetyltransferase biochemical assay (RapidFire mass spectrometry, AcCoA to CoA).
Sequence of KAT2A (Q92830 whole entry): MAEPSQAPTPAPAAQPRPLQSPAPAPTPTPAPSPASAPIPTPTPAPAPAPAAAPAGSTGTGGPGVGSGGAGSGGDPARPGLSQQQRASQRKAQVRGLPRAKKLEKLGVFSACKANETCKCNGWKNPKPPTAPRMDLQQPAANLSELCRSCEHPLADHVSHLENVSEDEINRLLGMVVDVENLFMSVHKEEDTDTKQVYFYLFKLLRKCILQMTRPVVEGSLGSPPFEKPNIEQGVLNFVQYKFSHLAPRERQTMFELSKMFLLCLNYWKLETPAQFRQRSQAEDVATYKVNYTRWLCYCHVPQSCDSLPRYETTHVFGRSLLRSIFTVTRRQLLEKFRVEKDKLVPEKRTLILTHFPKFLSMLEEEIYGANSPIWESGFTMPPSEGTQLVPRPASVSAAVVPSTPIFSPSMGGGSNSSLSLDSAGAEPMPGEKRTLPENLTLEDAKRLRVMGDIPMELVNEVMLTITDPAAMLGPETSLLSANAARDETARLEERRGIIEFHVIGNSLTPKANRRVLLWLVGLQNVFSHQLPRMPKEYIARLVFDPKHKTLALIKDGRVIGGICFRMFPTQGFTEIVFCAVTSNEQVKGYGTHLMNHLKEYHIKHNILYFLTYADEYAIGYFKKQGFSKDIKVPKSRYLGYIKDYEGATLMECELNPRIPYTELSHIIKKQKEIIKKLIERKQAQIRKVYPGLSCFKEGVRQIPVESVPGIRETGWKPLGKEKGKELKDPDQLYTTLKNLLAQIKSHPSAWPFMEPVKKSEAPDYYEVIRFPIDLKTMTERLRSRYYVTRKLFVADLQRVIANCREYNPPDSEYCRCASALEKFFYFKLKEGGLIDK
The subject of a further test is H3K9AC (HT1080 cells). In words: H3K9AC Sandwich ELISA Assay in HT1080 cells (KAT2A primary cell-based screening assay). Also noted: species or system Human. A digest of the protocol:
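Acetylated H3K9 quantified by luminescent sandwich ELISA (total H3 capture, H3K9ac detection) on HCl lysates of HT1080 cells. Cells had 24 h compound exposure at 37 °C, top concentration 10 µM, 10-point 3-fold series, 0.1% DMSO; IC50 from four-parameter fitting.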
A general note: ELISA stands for enzyme-linked immunosorbent assay.

For the next test, the system named is MM.1S cells. Kind of test: MM1.S 10 Day Proliferation Assay (CellTiter-Glo). The format is cell-based, Human. In short, it runs like this: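 MM.1S cells, 500/well in ultra-low-attachment plates, were pre-incubated 16 h, then exposed to a 10-point 1:3 dilution series (top 10 μM final, 0.1% DMSO) for 10 days at 37 °C, with compound-containing medium refreshed at day 5. Viability was read by CellTiter-Glo luminescence; IC50 came from four-parameter fit.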
On the technique in general: Cellular ATP, detected with luciferase, serves as a proxy for viable cell number.

The mark [1] stands for this setting: read-out: KAT2A Ki at 1 μM AcCoA, 5 μM H3 1-21 peptide, 0.5 nM KAT2A, 90-minute reaction.
Where [2] appears, read: Homo sapiens, HT-1080, H3K9AC sandwich ELISA.
Setting [3] is: KAT2A Ki at 1 μM AcCoA, 5 μM H3 1-21 peptide, 0.5 nM KAT2A, 90-minute reaction.

A word on the Ki: it is the equilibrium dissociation constant of an inhibitor or competing ligand from its target. Usually IC50 stands for the concentration needed to halve the response being measured. On to `CCc1ccccc1-c1cc(C(C)(C)C(=O)NS(=O)(=O)C(C)C)ccc1O[C@@H]1CC[C@@H](NC(=O)[C@@]2(F)CNC3(CCC3)C2)C1` [Example C46, (7S)-N-[(1R,3R)-3-({2′-ethyl-5-[2-methyl-1-oxo-1-(propane-2-sulfonamido)propan-2-yl][1,1′-biphenyl]-2-yl}oxy)cyclopentyl]-7-fluoro-5-azaspiro[3.4]octane-7-carboxamide], for which the inhibitory constant (Ki) at KAT2A (setting [1]) turned out to be 2.16 nM. Moreover, the IC50 in the test with H3K9AC (HT1080 cells) (setting [2]) was found to be 7.4 nM; with MM.1S cells (Homo sapiens, MM1.S, 240 h), 62.9 nM.

For `CC(C)S(=O)(=O)NC(=O)Cc1cccc(O[C@@H]2CC[C@@H](NC(=O)[C@@]3(F)CNC4(CCC4)C3)C2)c1-c1cccc(F)c1C1CCC1` (atropisomer, axis not shown) [Example I16, (7S)-N-[(1R,3R)-3-({(1ψ)-2′-cyclobutyl-3′-fluoro-6-[2-oxo-2-(propane-2-sulfonamido)ethyl][1,1′-biphenyl]-2-yl}oxy)cyclopentyl]-7-fluoro-5-azaspiro[3.4]octane-7-carboxamide], the Ki at KAT2A (setting [1]) was 0.03 nM. The half-maximal inhibitory concentration (IC50) with H3K9AC (HT1080 cells) (H3K9AC sandwich ELISA) came to 5.8 nM; in the test on MM.1S cells (Homo sapiens, MM1.S, 240 h) it was 31.1 nM.

On to `CCc1c(F)cccc1-c1cc(CC(=O)NS(=O)(=O)C(C)C)ccc1O[C@@H]1CC[C@@H](NC(=O)[C@@]2(F)CNCC(C)(C)C2)C1` (single isomer, unassigned) [Example C67], for which, at KAT2A (setting [1]), the inhibition constant Ki amounted to 0.07 nM. In addition, the half-inhibitory concentration (IC50) in the test on H3K9AC (HT1080 cells) (setting [2]) is 4.4 nM; with MM.1S cells (Homo sapiens, MM1.S, 240 h) it was 13.8 nM.

Regarding `CC(C)S(=O)(=O)NC(=O)C(C)(C)c1ccc(O[C@@H]2CC[C@@H](NC(=O)[C@@]3(F)CNC4(CCC4)C3)C2)c(-c2ccccc2C2CCC2)c1` (single isomer, unassigned) [Example C48], the inhibition constant Ki on KAT2A (setting [1]) worked out at 0.21 nM. Further, the IC50 with H3K9AC (HT1080 cells) (setting [2]) was found to be 4.7 nM; with MM.1S cells (Homo sapiens, MM1.S, 240 h), 18.9 nM.

Turning to `CC1(C)CNCC(F)(C(=O)N[C@@H]2CC[C@@H](Oc3ccc(C(=O)O)cc3-c3cccc(F)c3C3CCC3)C2)C1` (single isomer, unassigned) [Example A38], the Ki at KAT2A (setting [1]) amounted to 0.02 nM. For the same compound, the half-maximal inhibitory concentration (IC50) amounted to 4 nM with H3K9AC (HT1080 cells) (H3K9AC sandwich ELISA) and 18.3 nM in the test with MM.1S cells (Homo sapiens, MM1.S, 240 h).

With `C[C@H](C(=O)O)c1ccc(O[C@@H]2CC[C@@H](NC(=O)[C@@]3(F)CNC4(CCC4)C3)C2)c(-c2cccc(F)c2C2CCC2)c1` (single isomer, unassigned) [Example A19], the inhibition constant (Ki) at KAT2A (setting [1]) stood at 2.4 nM. The figures for the 50% inhibitory concentration (IC50) in the test on H3K9AC (HT1080 cells) (setting [2]) and with MM.1S cells were 10 nM and 431 nM, respectively.

Consider `Cc1cc(NS(C)(=O)=O)n(-c2ccc(O[C@@H]3CC[C@@H](NC(=O)[C@@H]4CC(C)(C)CN4C)C3)c(-c3cccc(F)c3C3CCC3)c2)n1` [Example L1, N-[(1R,3R)-3-({2′-cyclobutyl-3′-fluoro-5-[5-(methanesulfonamido)-3-methyl-1H-pyrazol-1-yl][1,1′-biphenyl]-2-yl}oxy)cyclopentyl]-1,4,4-trimethyl-L-prolinamide], for which the Ki on KAT2A (setting [1]) came to 0.16 nM. Further, the 50% inhibitory concentration (IC50) with H3K9AC (HT1080 cells) (setting [2]) is 7.01 nM; in the test with MM.1S cells (Homo sapiens, MM1.S, 240 h), 56 nM.

Turning to `CC[C@](C)(C(=O)O)c1ccc(O[C@@H]2CC[C@@H](NC(=O)[C@]3(F)CNC4(CCC4)C3)C2)c(-c2cccc(F)c2C2CCC2)c1` (single isomer, unassigned) [Example A9], the Ki on KAT2A (setting [1]) was 0.84 nM. The half-maximal inhibitory concentration (IC50) was 11.1 nM in the test with H3K9AC (HT1080 cells) (H3K9AC sandwich ELISA) and 135 nM with MM.1S cells.

Take `C[C@@H](C(=O)O)c1ccc(O[C@@H]2CC[C@@H](NC(=O)[C@@H]3CC(C)(C)CN3C)C2)c(-c2cccc(F)c2C2CCC2)c1` (single isomer, unassigned) [Example D13]: the Ki at KAT2A (setting [1]) came to 10.8 nM. For the same compound, the 50% inhibitory concentration (IC50) stood at 45 nM in the test on H3K9AC (HT1080 cells) (setting [2]) and 417 nM in the test on MM.1S cells (Homo sapiens, MM1.S, 240 h).

In the case of `CN1CC(C)(C)C[C@H]1C(=O)N[C@H]1C[C@H](COc2ccc(C(C)(C)C(=O)NS(C)(=O)=O)cc2-c2cccc(F)c2C2CCC2)C1` [Example G2, N-[(1r,3S)-3-{[(2′-cyclobutyl-3′-fluoro-5-{1-[(methanesulfonyl)amino]-2-methyl-1-oxopropan-2-yl}[1,1′-biphenyl]-2-yl)oxy]methyl}cyclobutyl]-1,4,4-trimethyl-L-prolinamide], affinity at KAT2A (setting [3]) was put at a Ki of 1.68 nM. Also, the half-maximal inhibitory concentration (IC50) in the test with H3K9AC (HT1080 cells) (setting [2]) was 9.38 nM; with MM.1S cells (Homo sapiens, MM1.S, 240 h), 56.9 nM.

Regarding `CC1(C)CNC[C@](F)(C(=O)N[C@@H]2CC[C@@H](Oc3ccc(C(C)(C)C(=O)NS(=O)(=O)C4(C)CC4)cc3-c3cccc(F)c3C3CCC3)C2)C1` (single isomer, unassigned) [Example C35], at KAT2A (setting [1]), the inhibition constant (Ki) was determined as 0.14 nM. Further, the IC50 in the test on H3K9AC (HT1080 cells) (setting [2]) amounted to 3.5 nM; with MM.1S cells (Homo sapiens, MM1.S, 240 h), 7.8 nM.

In the case of `CN1CC(C)(C)C[C@H]1C(=O)N[C@H]1C[C@H](COc2ccc(C(C)(C)C(=O)O)cc2-c2cccc(F)c2C2CCC2)C1` [Example F2, 2-[2′-cyclobutyl-3′-fluoro-6-({(1S,3r)-3-[(1,4,4-trimethyl-L-prolyl)amino]cyclobutyl}methoxy)[1,1′-biphenyl]-3-yl]-2-methylpropanoic acid], the affinity on KAT2A (setting [3]) corresponds to a Ki of 9.11 nM. For the same compound, the IC50 is 71.2 nM in the test with H3K9AC (HT1080 cells) (setting [2]) and 625 nM in the test on MM.1S cells (Homo sapiens, MM1.S, 240 h).

For the compound `CC(C)c1ccccc1-c1cc(C(C)(C)C(=O)NS(=O)(=O)C(C)C)ccc1O[C@@H]1CC[C@@H](NC(=O)[C@@]2(F)CNC3(CCC3)C2)C1` [Example C47, (7S)-7-fluoro-N-[(1R,3R)-3-({5-[2-methyl-1-oxo-1-(propane-2-sulfonamido)propan-2-yl]-2′-(propan-2-yl)[1,1′-biphenyl]-2-yl}oxy)cyclopentyl]-5-azaspiro[3.4]octane-7-carboxamide], the Ki at KAT2A (setting [1]) is 0.33 nM. Further, the 50% inhibitory concentration (IC50) was 2.9 nM in the test with H3K9AC (HT1080 cells) (setting [2]) and 14.3 nM in the test on MM.1S cells (Homo sapiens, MM1.S, 240 h).

Turning to `CC(C)(C(=O)NS(=O)(=O)C1(C)CC1)c1ccc(O[C@@H]2CC[C@@H](NC(=O)[C@@]3(F)CNC4(CCC4)C3)C2)c(-c2cccc(F)c2C2CCC2)c1` (single isomer, unassigned) [Example B34], the inhibition constant Ki on KAT2A (setting [1]) came to 0.04 nM. Also, the 50% inhibitory concentration (IC50) in the test on H3K9AC (HT1080 cells) (setting [2]) was found to be 3.1 nM; with MM.1S cells (Homo sapiens, MM1.S, 240 h), 8.4 nM.

Turning to `CC(C)c1c(F)cccc1-c1cc(C(C)(C)C(=O)NS(C)(=O)=O)ccc1O[C@@H]1CC[C@@H](NC(=O)[C@@]2(F)CNC3(CCC3)C2)C1` (single isomer, unassigned) [Example C20], the Ki at KAT2A (setting [1]) is 708 nM. The IC50 with H3K9AC (HT1080 cells) (H3K9AC sandwich ELISA) was > 1000 nM; in the test on MM.1S cells, > 10000 nM.

Regarding `CCc1c(F)cccc1-c1cc(C(=O)O)ccc1O[C@@H]1CC[C@@H](NC(=O)[C@@]2(F)CNC3(CCCC3)C2)C1` (single isomer, unassigned) [Example A43], at KAT2A (setting [1]), the inhibitory constant (Ki) is > 99.9 nM. The half-maximal inhibitory concentration (IC50) in the test with H3K9AC (HT1080 cells) (H3K9AC sandwich ELISA) and in the test with MM.1S cells was > 1000 nM throughout.

Take `CC(C)c1ccccc1-c1c(CC(=O)O)cccc1O[C@@H]1CC[C@@H](NC(=O)[C@@H]2CC(C)(C)CN2C)C1` (atropisomer, axis not shown) [Example H4, [(1ψ)-2′-(propan-2-yl)-6-({(1R,3R)-3-[(1,4,4-trimethyl-L-prolyl)amino]cyclopentyl}oxy)[1,1′-biphenyl]-2-yl]acetic acid]: the Ki at KAT2A (setting [1]) was 42.8 nM. Besides, the IC50 with H3K9AC (HT1080 cells) (setting [2]) worked out at 112 nM; in the test on MM.1S cells (Homo sapiens, MM1.S, 240 h), 385 nM.

Consider `CC(C)c1c(F)cccc1-c1cc(C(C)(C)C(=O)O)ccc1O[C@@H]1CC[C@@H](NC(=O)[C@@]2(F)CNC3(CCC3)C2)C1` (single isomer, unassigned) [Example A22], for which the inhibition constant (Ki) on KAT2A (setting [1]) came out at 0.34 nM. Further, the IC50 in the test on H3K9AC (HT1080 cells) (H3K9AC sandwich ELISA) amounted to 4.33 nM; with MM.1S cells it was 101 nM.

Regarding `CC[C@](C)(C(=O)O)c1ccc(O[C@@H]2CC[C@@H](NC(=O)[C@]3(F)CNC4(CCC4)C3)C2)c(-c2cccc(F)c2C2CCC2)c1` (single isomer, unassigned) [Example A12], the Ki on KAT2A (setting [1]) was determined as 1.78 nM. Also, the figures for the IC50 in the test with H3K9AC (HT1080 cells) (H3K9AC sandwich ELISA) and with MM.1S cells were 28.8 nM and 368 nM, respectively.
